“And” between values parts separate entries of the source, which are not always exact repeats. Equal values may be shown once. Toxic doses and inconclusive results are not listed.

In this test the test system is P388 leukemia ip, CD2F1 mice, survival T/C. The experiment in a line: NCI In Vivo Anticancer Drug Screen. Data for tumor model P388 Leukemia (intraperitoneal) in CD2F1 (CDF1) mice. The settings on record: endpoint: median survival time, higher = longer survival. In a few lines:
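Mice carrying the transplanted tumor received test compound or vehicle. Survival was recorded in each group, and the value is the treated-group measurement divided by that of the vehicle-treated control group.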

The mark [1] stands for this setting: dose: 6.25 mg/kg/injection, schedule: Q01DX009 (ip), vehicle: saline with Tween-80.
Where [2] appears, read: dose: 12.5 mg/kg/injection, schedule: Q01DX009 (ip), vehicle: saline with Tween-80.
Setting [3] is: dose: 50.0 mg/kg/injection, schedule: Q01DX009 (ip), vehicle: Klucel (hydroxypropylcellulose) (HPC).
Where [4] appears, read: dose: 100.0 mg/kg/injection, schedule: Q01DX009 (ip), vehicle: Klucel (hydroxypropylcellulose) (HPC).
The mark [5] stands for this setting: dose: 200.0 mg/kg/injection, schedule: Q01DX009 (ip), vehicle: Klucel (hydroxypropylcellulose) (HPC).

`CCOC(=O)NNS(=O)(=O)CCC(N)C(=O)O` (centres undefined): the T/C is, setting by setting: (dose: 12.5 mg/kg/injection, schedule: Q01DX009 (ip), vehicle: water) 98 % of control; (dose: 25.0 mg/kg/injection, schedule: Q01DX009 (ip), vehicle: water) 88 % of control and 95 % of control; (dose: 50.0 mg/kg/injection, schedule: Q01DX009 (ip), vehicle: water) 87 % of control and 90 % of control; (dose: 100.0 mg/kg/injection, schedule: Q01DX009 (ip), vehicle: water) 93 % of control; (dose: 200.0 mg/kg/injection, schedule: Q01DX009 (ip), vehicle: water) 109 % of control and 86 % of control; (dose: 400.0 mg/kg/injection, schedule: Q01DX009 (ip), vehicle: water) 111 % of control.

Take `CN1CC2(c3ccccc3)CN(C)CC(c3ccccc3)(C1)C2=O`: the T/C is, setting by setting: under setting [1], 100 % of control; under setting [2], 86 % of control.

Take `CC(/C=N/Nc1ccccc1)=N\N=c1/scc(-c2ccccc2)n1Cc1ccccc1`: the T/C is, setting by setting: (dose: 100.0 mg/kg/injection, schedule: Q01DX001 (ip), vehicle: saline with Tween-80) 93 % of control; (dose: 200.0 mg/kg/injection, schedule: Q01DX001 (ip), vehicle: saline with Tween-80) 97 % of control; (dose: 400.0 mg/kg/injection, schedule: Q01DX001 (ip), vehicle: saline with Tween-80) 93 % of control.

As for `O=c1nc(-c2ccco2)sc(=O)[nH]1`, the T/C by setting is: (dose: 25.0 mg/kg/injection, schedule: Q01DX009 (ip), vehicle: Klucel (hydroxypropylcellulose) (HPC)) 109 % of control; under setting [3], 106 % of control and 117 % of control; under setting [4], 113 % of control; under setting [5], 105 % of control and 121 % of control.

Regarding `Nc1nccc2[nH]ccc12`, the T/C runs as follows: (dose: 12.5 mg/kg/injection, schedule: Q01DX001 (ip), vehicle: saline) 103 % of control; (dose: 25.0 mg/kg/injection, schedule: Q01DX001 (ip), vehicle: saline) 102 % of control; (dose: 50.0 mg/kg/injection, schedule: Q01DX001 (ip), vehicle: saline) 112 % of control.

For the compound `CC(=O)Oc1ccc(CO)cc1OC(C)=O`, the T/C runs as follows: (dose: 50.0 mg/kg/injection, schedule: Q01DX005 (ip), vehicle: saline) 101 % of control and 102 % of control; (dose: 100.0 mg/kg/injection, schedule: Q01DX005 (ip), vehicle: saline) 106 % of control and 108 % of control.

With `C/C(=N\NC(=S)N1CCCC1)c1cccc(C)n1`, the T/C runs as follows: (dose: 12.5 mg/kg/injection, schedule: Q01DX005 (ip), vehicle: saline + Tween-80 + alcohol) 104 % of control and 106 % of control; (dose: 25.0 mg/kg/injection, schedule: Q01DX005 (ip), vehicle: saline + Tween-80 + alcohol) 108 % of control and 113 % of control; (dose: 50.0 mg/kg/injection, schedule: Q01DX005 (ip), vehicle: saline + Tween-80 + alcohol) 122 % of control.

Regarding `COc1ccc2[nH]c3c(C)c4cc[n+](C)c(C)c4cc3c2c1`, the T/C is, setting by setting: (dose: 1.56 mg/kg/injection, schedule: Q04DX002 (ip), vehicle: water) 97 % of control; (dose: 3.12 mg/kg/injection, schedule: Q04DX002 (ip), vehicle: water) 104 % of control; (dose: 6.25 mg/kg/injection, schedule: Q04DX002 (ip), vehicle: water) 107 % of control; (dose: 10.0 mg/kg/injection, schedule: Q04DX002 (ip), vehicle: water) 200 % of control; (dose: 12.5 mg/kg/injection, schedule: Q04DX002 (ip), vehicle: water) 113 % of control; (dose: 20.0 mg/kg/injection, schedule: Q04DX002 (ip), vehicle: water) 115 % of control. For the same compound, the T/C is 117 % of control (dose: 25.0 mg/kg/injection, schedule: Q04DX002 (ip), vehicle: water); 112 % of control (dose: 40.0 mg/kg/injection, schedule: Q04DX002 (ip), vehicle: water); 123 % of control (dose: 50.0 mg/kg/injection, schedule: Q04DX002 (ip), vehicle: water).

As to `Oc1cc(CN2CCOCC2)c(O)cc1CN1CCOCC1`, the T/C runs as follows: (dose: 1.56 mg/kg/injection, schedule: Q01DX009 (ip), vehicle: saline with Tween-80) 100 % of control; (dose: 3.13 mg/kg/injection, schedule: Q01DX009 (ip), vehicle: saline with Tween-80) 119 % of control and 121 % of control; under setting [1], 113 % of control; under setting [2], 113 % of control; (dose: 25.0 mg/kg/injection, schedule: Q01DX009 (ip), vehicle: saline with Tween-80) 117 % of control.

For `Cc1ccc(C)c2c1C(=O)c1c(C)ccc(C)c1C2=O`, the T/C runs as follows: (dose: 1.5 mg/kg/injection, schedule: Q01DX005 (ip), vehicle: Klucel (hydroxypropylcellulose) (HPC)) 99 % of control; (dose: 3.0 mg/kg/injection, schedule: Q01DX005 (ip), vehicle: Klucel (hydroxypropylcellulose) (HPC)) 94 % of control; (dose: 6.0 mg/kg/injection, schedule: Q01DX005 (ip), vehicle: Klucel (hydroxypropylcellulose) (HPC)) 89 % of control; (dose: 50.0 mg/kg/injection, schedule: Q01DX005 (ip), vehicle: Klucel (hydroxypropylcellulose) (HPC)) 90 % of control; (dose: 100.0 mg/kg/injection, schedule: Q01DX005 (ip), vehicle: Klucel (hydroxypropylcellulose) (HPC)) 87 % of control; (dose: 200.0 mg/kg/injection, schedule: Q01DX005 (ip), vehicle: Klucel (hydroxypropylcellulose) (HPC)) 86 % of control.

Turning to `COC(=O)C(CCc1ccc([N+](=O)[O-])cc1)C(C)=O` (centres undefined), the T/C is, setting by setting: (dose: 60.0 mg/kg/injection, schedule: Q01DX005 (ip), vehicle: saline) 102 % of control; (dose: 120.0 mg/kg/injection, schedule: Q01DX005 (ip), vehicle: saline) 97 % of control; (dose: 240.0 mg/kg/injection, schedule: Q01DX005 (ip), vehicle: saline) 95 % of control.

Consider `S=c1[nH]c2ccccc2n1CCc1ccncc1`, for which the T/C was 104 % of control (dose: 25.0 mg/kg/injection, schedule: Q01DX007 (ip), vehicle: Klucel (hydroxypropylcellulose) (HPC)); 103 % of control (dose: 25.0 mg/kg/injection, schedule: Q01DX008 (ip), vehicle: Klucel (hydroxypropylcellulose) (HPC)); 104 % of control (dose: 50.0 mg/kg/injection, schedule: Q01DX007 (ip), vehicle: Klucel (hydroxypropylcellulose) (HPC)); 106 % of control (dose: 50.0 mg/kg/injection, schedule: Q01DX008 (ip), vehicle: Klucel (hydroxypropylcellulose) (HPC)); 93 % of control under setting [3]; 99 % of control (dose: 100.0 mg/kg/injection, schedule: Q01DX007 (ip), vehicle: Klucel (hydroxypropylcellulose) (HPC)). Besides, the T/C is, setting by setting: (dose: 100.0 mg/kg/injection, schedule: Q01DX008 (ip), vehicle: Klucel (hydroxypropylcellulose) (HPC)) 100 % of control; under setting [4], 94 % of control; (dose: 200.0 mg/kg/injection, schedule: Q01DX007 (ip), vehicle: Klucel (hydroxypropylcellulose) (HPC)) 106 % of control; (dose: 200.0 mg/kg/injection, schedule: Q01DX008 (ip), vehicle: Klucel (hydroxypropylcellulose) (HPC)) 106 % of control; under setting [5], 94 % of control.

Turning to `CSC(N)=Nc1cccc2c1CCCC2`, the T/C by setting is: (dose: 25.0 mg/kg/injection, schedule: Q01DX009 (ip), vehicle: saline) 100 % of control; (dose: 50.0 mg/kg/injection, schedule: Q01DX009 (ip), vehicle: saline) 100 % of control; (dose: 100.0 mg/kg/injection, schedule: Q01DX009 (ip), vehicle: saline) 95 % of control.

Consider `CNC(=O)OCc1nn(-c2ccc(OC)cc2)c(C)c1COC(=O)NC`, for which the T/C (dose: 12.5 mg/kg/injection, schedule: Q01DX009 (ip), vehicle: distilled water + Tween-80) was 92 % of control; the T/C (dose: 25.0 mg/kg/injection, schedule: Q01DX009 (ip), vehicle: distilled water + Tween-80) is 90 % of control; the T/C (dose: 50.0 mg/kg/injection, schedule: Q01DX009 (ip), vehicle: distilled water + Tween-80) was 90 % of control; the T/C (dose: 100.0 mg/kg/injection, schedule: Q01DX009 (ip), vehicle: distilled water + Tween-80) was 90 % of control; the T/C (dose: 200.0 mg/kg/injection, schedule: Q01DX009 (ip), vehicle: distilled water + Tween-80) is 87 % of control.

Consider `CC1(C)C[C@H](OC2CCCCO2)[C@H]2O[C@@]2(C)C1` (some centres undefined), for which the T/C reads like this: (dose: 100.0 mg/kg/injection, schedule: Q04DX002 (ip), vehicle: saline) 103 % of control; (dose: 200.0 mg/kg/injection, schedule: Q04DX002 (ip), vehicle: saline) 102 % of control; (dose: 400.0 mg/kg/injection, schedule: Q04DX002 (ip), vehicle: saline) 96 % of control.

On to `Cc1cc[c]([Sb]2[O]C(CO)C(C(O)C(O)C(=O)O)[O]2)cc1` (centres undefined), for which the T/C (dose: 25.0 mg/kg/injection, schedule: Q01DX005 (ip), vehicle: saline) was 101 % of control and 104 % of control and 105 % of control.

These data come from PubChem BioAssay AID330 (DTP/NCI, 2004).
